Assay results from patent publication US20100009973A1, “Integrase Inhibitors 3” (AVEXA LIMITED, priority 2006, published 2010).

Biological target: T1, HIV integrase (Human immunodeficiency virus type 1 group M subtype B, UniProt P04585)
Assay: Strand transfer specific assay
Type: biochemical
Conditions: Table 8 cells marked (ST) / (ST assay): strand transfer specific
Procedure: (§1) A combined 3′-processing/strand transfer assay procedure similar to that published (Ovenden et al. Phytochemistry. 2004 December; 65(24):3255-9.) was used. This assay was adapted to a 96 well plate format. Briefly, 400 ng of […] is incubated with 30 nM substrate DNA, consisting of annealed U5 LTR sequence oligonucleotides tagged with Digoxigenin (DIG; 5′-[…]-DIG-3′) or biotin (5′-Bio-[…]-3′) so that each substrate has either a DIG or Bio tag on opposite strands. Reactions are carried out for 2 hrs at 37° C., products generated as a result of 3′processing and strand transfer activity are bound to streptavidin plates and detected with using anti-DIG-alkaline phosphatase conjugate and p-nitro phenyl phosphate substrate.
The strand transfer specific assay is of similar format to that of the 3′processing/strand transfer combined assay except that it uses a biotinylated substrate that represents a pre-processed LTR end (5′-Bio-[…]-3′).

| SMILES | IC50 [µM] |
| --- | --- |
| Cc1cc(-c2cc(-c3ccc(N4CCOCC4)cc3)nc(OCc3ccc(C(=O)O)cc3Br)c2C#N)on1 [compound 15300] | < 10 |
| CCOc1cnc(-c2cc(-c3ccc(N4CCOCC4)cc3)nc(OCc3ccc(C(=O)O)cc3Br)c2C#N)o1 [compound 15303] | < 10 |
| CCOc1cnc(-c2cc(-c3ccc(N4CCOCC4)cc3)nc(OCc3sc(C(=O)O)cc3C#N)c2C#N)o1 [compound 15424] | < 10 |
| N#Cc1c(-c2oncc2C(=O)O)cc(-c2ccc(N3CCOCC3)cc2)nc1OCc1ccc(C(=O)O)s1 [compound 15435] | < 10 |

System: HIV
Assay: Inhibition of HIV replication (extracellular p24)
Type: cell-based
Conditions: Human immunodeficiency virus 1; concentration inhibiting HIV p24 production to 50% of no drug controls
Procedure: Cells are seeded into 96 well microtitre plates at 50,000 cells per 50 ul per well in RF-10 containing 2 μg/mL polybrene (RF-10/2). Compounds are prepared to 4× final concentration in RF-10/2, and 30 μL added to cells. Virus (40 μL in RF-10/2 containing 1600 pfu) is added to each well or 40 μL RF-10/2 for negative controls and for assaying compound cytotoxicity. After 24 hrs, an additional 90 μL of media or media containing 1× compound is added to each well. At 4 days post infection, 100 μL of media is removed from each well and replaced with 100 μl of fresh media with or without compound. Forty eight hours later supernatants are harvested and levels of extracellular p24 determined. Supernatants are diluted 1 in 10,000 and p24 levels assayed using the Vironostika p24 assay kit. EC50 is calculated as the concentration required to inhibit HIV p24 production to 50% that of no drug controls.

| SMILES | EC50 [µM] |
| --- | --- |
| N#Cc1c(-c2ccoc2)cc(-c2ccc(N3CCOCC3)cc2)nc1OCc1ccc(C(=O)O)s1 [compound 14483] | < 10 |

Biological target: T1, HIV integrase
Assay: 3'processing/strand transfer combined assay
Type: biochemical
Conditions: not given
Procedure: as §1

| SMILES | IC50 [µM] |
| --- | --- |
| N#Cc1c(-c2ccoc2)cc(-c2ccc(N3CCOCC3)cc2)nc1OCc1ccc(C(=O)O)s1 [compound 14483] | 10 to 50 |

Same assay, conditions: Table 8 cells that name no assay; taken as the 3'processing/strand transfer combined assay; read-out: IC50

| SMILES | IC50 [µM] |
| --- | --- |
| N#Cc1c(-c2ccoc2)cc(-c2ccc(N3CCOCC3)cc2)nc1OCc1ccc(C(=O)O)cc1 [compound 14353] | < 10 |
| Cc1cc(C(=O)O)ccc1COc1nc(-c2ccc(N3CCOCC3)cc2)cc(-c2ccoc2)c1C#N [compound 14499] | < 10 |
| N#Cc1c(-c2ccoc2)cc(-c2ccc(N3CCOCC3)cc2)nc1OCc1nc(C(=O)O)cs1 [compound 14693] | < 10 |
| N#Cc1c(-c2ccoc2)cc(-c2ccc(N3CCOCC3)cc2)nc1OCc1nc(C(=O)O)co1 [compound 14761] | 10 to 50 |
| N#Cc1cc(C(=O)O)sc1COc1nc(-c2ccc(N3CCOCC3)cc2)cc(-c2ccoc2)c1C#N [compound 14905] | < 10 |
| N#Cc1c(-c2ccoc2)cc(-c2ccc(N3CCOCC3)cc2)nc1OCc1c(C(=O)O)csc1Br [compound 14906] | < 10 |
| Cc1cc(-c2cc(-c3ccc(N4CCOCC4)cc3)nc(OCc3ccc(C(=O)O)s3)c2C#N)on1 [compound 14959] | 10 to 50 |
| CCOc1cnc(-c2cc(-c3ccc(N4CCOCC4)cc3)nc(OCc3ccsc3C(=O)O)c2C#N)o1 [compound 14963] | 10 to 50 |
| CCOc1cnc(-c2cc(-c3ccc(N4CCOCC4)cc3)nc(OCc3csc(C(=O)O)c3)c2C#N)o1 [compound 15044] | 10 to 50 |
| Cc1cc(-c2cc(-c3ccc(N4CCOCC4)cc3)nc(OCc3csc(C(=O)O)c3)c2C#N)on1 [compound 15045] | < 10 |
